In patent publication US9273057B2 (Bristol-Myers Squibb Company, priority 2012, dated 2016):

Target: CK2A1 (CK2α/β) (Homo sapiens, UniProt P68400)
Experiment: CK2 kinase assay, CK2A1 (CK2α/β)
Assay type: biochemical
Details: Table A; read-out: CK2A1 (CK2α/β) (IC50)

CK2A1 (CK2α/β), sequence (P68400 whole entry, species assumed): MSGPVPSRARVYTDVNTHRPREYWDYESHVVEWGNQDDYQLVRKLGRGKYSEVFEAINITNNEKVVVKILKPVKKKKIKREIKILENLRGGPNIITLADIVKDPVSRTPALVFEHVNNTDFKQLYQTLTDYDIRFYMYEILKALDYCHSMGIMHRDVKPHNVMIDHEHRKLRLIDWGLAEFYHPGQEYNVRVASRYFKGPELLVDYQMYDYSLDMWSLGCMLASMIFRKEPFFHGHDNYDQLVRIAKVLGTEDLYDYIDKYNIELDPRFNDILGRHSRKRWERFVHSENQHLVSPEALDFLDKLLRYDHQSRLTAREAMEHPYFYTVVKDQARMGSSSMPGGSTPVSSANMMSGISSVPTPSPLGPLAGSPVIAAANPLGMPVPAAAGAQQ
CK2A1 (CK2α/β), sequence (P67870 whole entry partner, species assumed): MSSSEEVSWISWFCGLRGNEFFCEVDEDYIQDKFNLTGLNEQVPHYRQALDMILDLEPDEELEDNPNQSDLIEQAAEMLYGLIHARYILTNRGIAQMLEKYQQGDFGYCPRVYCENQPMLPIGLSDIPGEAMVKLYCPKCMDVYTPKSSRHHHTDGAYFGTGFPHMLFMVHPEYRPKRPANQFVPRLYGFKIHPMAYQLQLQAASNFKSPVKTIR

**Q.** N#Cc1cc(CNCCN2CCOCC2)c(Cl)c(Nc2nc(NC3CC3)c3ncc(C#N)n3n2)c1 [Example 466, 2-{[2-chloro-5-cyano-3-({[2-(morpholin-4-yl)ethyl]amino}methyl)phenyl]amino}-4-(cyclopropylamino)imidazo[2,1-f][1,2,4]triazine-7-carbonitrile] was tested. Which IC50 did it give?
**A.** 1.31 nM

**Q.** Which IC50 does the source give for COCCN(C)CC1CN(c2cc(C#N)cc(Nc3nc(NC4CC4)c4ncc(C#N)n4n3)c2Cl)CCN1C (stereo not drawn) [Example 707, 2-{[2-chloro-5-cyano-3-(3-{[(2-methoxyethyl)(methyl)amino]methyl}-4-methylpiperazin-1-yl)phenyl]amino}-4-(cyclopropylamino)imidazo[2,1-f][1,2,4]triazine-7-carbonitrile] here?
**A.** 1.35 nM

**Q.** Which IC50 does the source give for CC(C)(O)C1CN(C2CN(c3cc(C#N)cc(Nc4nc(NC5CC5)c5ncc(C#N)n5n4)c3Cl)C2)CCO1 (racemic) [Example 165, (+/−)2-(2-chloro-5-cyano-3-(3-(2-(2-hydroxypropan-2-yl)morpholino)azetidin-1-yl)phenylamino)-4-(cyclopropylamino)imidazo [1,2-f][1,2,4]triazine-7-carbonitrile] here?
**A.** 0.54 nM

**Q.** How did the IC50 turn out when CN1CCN(C2CCN(c3cc(C#N)cc(Nc4nc(NC5CC5)c5ncc(C#N)n5n4)c3Cl)CC2)CC1 [Example 12, 2-((2-chloro-5-cyano-3-(4-(4-methyl-1-piperazinyl)-1-piperidinyl)phenyl)amino)-4-(cyclopropylamino)imidazo [2,1-f][1,2,4]triazine-7-carbonitrile] was run?
**A.** 1.15 nM

**Q.** CCNc1nc(Nc2cc(C#N)cc(N3CC[C@@H](NC(=O)OCC)[C@H](O)C3)c2Cl)nn2c(C#N)cnc12 [Example 332, ethyl ((3R,4R)-1-(2-chloro-5-cyano-3-((7-cyano-4-(ethylamino)imidazo[2,1-f][1,2,4]triazin-2-yl)amino)phenyl)-3-hydroxypiperidin-4-yl)carbamate] was tested. Which IC50 did it give?
**A.** 0.41 nM

**Q.** Which IC50 does the source give for CN1CCC(F)(c2cc(C#N)cc(Nc3nc(NC4CC4)c4ncc(C#N)n4n3)c2Cl)CC1 [Example 661, 2-((2-chloro-5-cyano-3-(4-fluoro-1-methylpiperidin-4-yl)phenyl)amino)-4-(cyclopropylamino)imidazo[2,1-f][1,2,4]triazine-7-carbonitrile] here?
**A.** 1.56 nM

**Q.** How did the IC50 turn out when COC(=O)Nc1cc(Nc2nc(NC3CC3)c3ncc(C#N)n3n2)c(Cl)c(N2CCC(N3CCOCC3)CC2)c1 [Example 205, methyl (4-chloro-3-((7-cyano-4-(cyclopropylamino)imidazo[2,1-f][1,2,4]triazin-2-yl)amino)-5-(4-(4-morpholinyl)-1-piperidinyl)phenyl)carbamate] was run?
**A.** 1.95 nM

**Q.** How did the IC50 turn out when N#Cc1cc(Nc2nc(NC3CC3)c3ncc(C#N)n3n2)c(Cl)c(N2CCC(N[C@H]3COC[C@@H]3O)CC2)c1 (racemic) [Example 135, (+/−) 2-((2-chloro-5-cyano-3-(4-(((3S,4R)-4-hydroxytetrahydro-3-furanyl)amino)-1-piperidinyl)phenyl)amino)-4-(cyclopropylamino)imidazo [2,1-f][1,2,4]triazine-7-carbonitrile] was run?
**A.** 0.68 nM

**Q.** With N#Cc1cc(CN2CCC(C(N)=O)CC2)c(Cl)c(Nc2nc(NC3CC3)c3ncc(C#N)n3n2)c1 [Example 471, 1-[(2-chloro-5-cyano-3-{[7-cyano-4-(cyclopropylamino)imidazo[2,1-f][1,2,4]triazin-2-yl]amino}phenyl)methyl]piperidine-4-carboxamide] as the compound, how does the IC50 read?
**A.** 0.87 nM

**Q.** With N#Cc1cc(Nc2nc(NC3CC3)c3ncc(C#N)n3n2)c(Cl)c(N2CCNCC2=O)c1 [Example 628, 2-((2-chloro-5-cyano-3-(2-oxopiperazin-1-yl)phenyl)amino)-4-(cyclopropylamino)imidazo[2,1-f][1,2,4]triazine-7-carbonitrile] as the compound, how does the IC50 read?
**A.** 9.85 nM

**Q.** For CC1(CN2CCC(c3cc(C#N)cc(Nc4nc(NC5CC5)c5ncc(C#N)n5n4)c3Cl)CC2)COC1 [Example 225, 2-((2-chloro-5-cyano-3-(1-((3-methyl-3-oxetanyl)methyl)-4-piperidinyl)phenyl)amino)-4-(cyclopropylamino)imidazo[2,1-f][1,2,4]triazine-7-carbonitrile], which IC50 is on record?
**A.** 2 nM

**Q.** CC(=O)N1CC(N2CCN(c3cc(C#N)cc(Nc4nc(NC5CC5)c5ncc(C#N)n5n4)c3Cl)CC2)C1 [Example 480, 2-({3-[4-(1-acetylazetidin-3-yl)piperazin-1-yl]-2-chloro-5-cyanophenyl}amino)-4-(cyclopropylamino)imidazo[2,1-f][1,2,4]triazine-7-carbonitrile] was tested. Which IC50 did it give?
**A.** 0.86 nM

**Q.** CC(C)(O)C1CCN(C2CN(c3cc(C#N)cc(Nc4nc(NC5CC5)c5ncc(C#N)n5n4)c3Cl)C2)CC1 [Example 158] was tested. Which IC50 did it give?
**A.** 0.65 nM

**Q.** How did the IC50 turn out when C[N+]1(C)CCN(C2CN(c3cc(C#N)cc(Nc4nc(NC5CC5)c5ncc(C#N)n5n4)c3Cl)C2)CC1 [Example 170, 4-(1-(2-chloro-5-cyano-3-((7-cyano-4-(cyclopropylamino)imidazo [2,1-f][1,2,4]triazin-2-yl)amino)phenyl)-3-azetidinyl)-1,1-dimethylpiperazin-1-ium] was run?
**A.** 0.93 nM

**Q.** How did the IC50 turn out when CCNc1nc(Nc2cc(C#N)cc(N3CC(C)[C@H](NC(=O)OC)C3)c2Cl)nn2c(C#N)cnc12 (stereo in doubt) [Example 336, methyl ((3S,4R)-1-(2-chloro-5-cyano-3-((7-cyano-4-(ethylamino)imidazo[2,1-f][1,2,4]triazin-2-yl)amino)phenyl)-4-methyl-3-pyrrolidinyl)carbamate] was run?
**A.** 0.74 nM

**Q.** Which IC50 does the source give for CC1(C(=O)N2CC(N3CCN(c4cc(C#N)cc(Nc5nc(NC6CC6)c6ncc(C#N)n6n5)c4Cl)CC3)C2)COC1 [Example 522, 2-[(2-chloro-5-cyano-3-{4-[1-(3-methyloxetane-3-carbonyl)azetidin-3-yl]piperazin-1-yl}phenyl)amino]-4-(cyclopropylamino)imidazo[2,1-f][1,2,4]triazine-7-carbonitrile] here?
**A.** 3.69 nM

**Q.** For CCNc1nc(Nc2cc(C#N)cc(C3CN(C(=O)CC#N)C3)c2Cl)nn2c(C#N)cnc12 [Example 369, 2-((2-chloro-5-cyano-3-(1-(2-cyanoacetyl)azetidin-3-yl)phenyl)amino)-4-(ethylamino)imidazo[2,1-f][1,2,4]triazine-7-carbonitrile], which IC50 is on record?
**A.** 1.58 nM

**Q.** How did the IC50 turn out when CC(C)(CO)NCc1cc(C#N)cc(Nc2nc(NC3CC3)c3ncc(C#N)n3n2)c1Cl [Example 674, 2-((2-chloro-5-cyano-3-(((1-hydroxy-2-methylpropan-2-yl)amino)methyl)phenyl)amino)-4-(cyclopropylamino)imidazo[2,1-f][1,2,4]triazine-7-carbonitrile] was run?
**A.** 1.74 nM

**Q.** CCNc1nc(Nc2cc(C#N)cc(N3CC(N4CCN(C)CC4)C3)c2F)nn2c(C#N)cnc12 [Example 383, 2-((5-cyano-2-fluoro-3-(3-(4-methylpiperazin-1-yl)azetidin-1-yl)phenyl)amino)-4-(ethylamino)imidazo[2,1-f][1,2,4]triazine-7-carbonitrile] was tested. Which IC50 did it give?
**A.** 0.77 nM

**Q.** How did the IC50 turn out when N#Cc1cc(Nc2nc(NC3CC3)c3ncc(C#N)n3n2)c(Cl)c(N2CCC(C(CO)CO)CC2)c1 [Example 526, 2-((2-chloro-5-cyano-3-(4-(1,3-dihydroxypropan-2-yl)piperidin-1-yl)phenyl)amino)-4-(cyclopropylamino)imidazo[2,1-f][1,2,4]triazine-7-carbonitrile] was run?
**A.** 0.42 nM

**Q.** With CC(CCc1cc(Cl)c(Nc2nc(NC3CC3)c3ncc(C#N)n3n2)cc1C#N)N1CCOCC1 (stereo not drawn) [Example 720, 2-((2-chloro-5-cyano-4-(3-morpholinobutyl)phenyl)amino)-4-(cyclopropylamino)imidazo[2,1-f][1,2,4]triazine-7-carbonitrile] as the compound, how does the IC50 read?
**A.** 2.48 nM
